Source: publication PMC12430278, “A Simple and Reliable Method for the Determination of Isorhapontigenin in Murine Biological Matrices: Application in a Tissue Distribution Study” (Molecules, 2025)
Like-named read-outs stand apart in the source and are kept apart here.

Experiments:
[1] = tested on: primary airway epithelial cells isolated from patients with chronic obstructive pulmonary disease (COPD); design: method as in PMID 28369685; conditions: RES as comparator; cited from earlier work
[2] = enzymatic-hydrolysis approach; cited from earlier work
[3] = cited from earlier work
[4] = Stability of ISO in plasma samples under various storage conditions; format: in vitro ADME; conditions: mouse plasma, read-out: Remaining (%, Mean ± SD)
Text: In bioanalysis, analyte stability in biological matrices is crucial for ensuring accurate and reliable quantification. Instability can result in degradation or transformation during sample collection, storage, or processing, potentially compromising data integrity and study outcomes. Therefore, the stability of ISO in plasma was thoroughly evaluated under various storage conditions (Table 5). Assessing ISO stability in intact tissues is challenging, as replicating the native tissue environment is difficult. Accordingly, only short-term stability (6 h on ice) was assessed in tissue homogenates (Table 6). For post-preparative stability, hepatic homogenate—the most complex matrix—was selected as a representative.
For the cleanup of plasma samples, three volumes of acetonitrile (containing IS at 400 ng/mL) were added to one volume of murine plasma to precipitate proteins. After vortexing for 20 s, the samples were centrifuged at 1503× g for 10 min at 4 °C. The supernatant was carefully transferred to a glass insert preloaded in an autosampler vial. During each HPLC analysis, 10 μL of supernatant was injected into the HPLC system. The minimum plasma volume required per analysis was 25 μL.
(§1) The stability of ISO was evaluated under various storage conditions. Stock solution stability was assessed after storage at room temperature (25 °C) and –20 °C. The stability of ISO in plasma was examined under the following conditions: short-term storage (25 °C for 24 h), long-term storage (–80 °C for 52 days), three freeze–thaw cycles, and post-preparative stability (samples kept in an autosampler at 4 °C for more than 24 h). As it is difficult to evaluate ISO stability directly in tissues, only the short-term stability in tissue homogenates was assessed (6 h on ice). Similarly, post-preparative stability in processed tissue samples was assessed using liver homogenate as a representative, due to the complexity of the hepatic matrix. Stability was considered acceptable if 85–115% of the initial ISO concentration remained.

[5] = mice, oral; cited from earlier work
[6] = Stability of stock solutions; format: physicochemical; conditions: DMSO stock solution, stock solution 1.00 mg/mL, n = 6, read-out: Remaining (%, Mean ± SD)
Method: Stock solutions of ISO and trans-stilbene (internal standard, IS) were prepared in DMSO at a final concentration of 1 mg/mL. These solutions were stored at −20 °C and protected from light. The calibration standard and quality control (QC) samples were prepared by serial dilution of the ISO stock solution with pooled blank murine plasma or respective tissue homogenate.
as §1

[7] = Biodistribution study in mice following oral administration; format: in vivo, C57BL/6 mice
Method: Following oral administration of ISO at a dose of 200 µmol/kg (equivalent to 51.7 mg/kg), three to four mice (n = 3 or 4) were euthanized at each predetermined time point (5, 10, 20, 40, 60, and 80 min), and biological samples were collected. ISO concentrations were quantified using our validated HPLC-UV method. Exposure levels (AUC) in plasma and other individual biological matrices were calculated based on the mean concentrations at each time point.
Specific pathogen-free C57BL/6 mice (male; 6–8 weeks old; weight: 18–21 g) were purchased through Shenzhen Glorybay Biotech Co. (Shenzhen, China). The animals had ad libitum access to food and water prior to dosing. ISO was administered as an aqueous suspension (vehicle: 0.3% sodium carboxymethylcellulose with 0.2% L-ascorbic acid; ISO concentration: 5 mg/mL) via oral gavage at a dose of 200 µmol/kg (equivalent to 51.7 mg/kg, dosing volume: 10.34 mL/kg). At each predetermined time point (5, 10, 20, 40, 60 and 80 min) three to four mice (n = 3 or 4) were euthanized through cervical dislocation. Blood samples were collected into heparinized centrifuge tubes and centrifuged to obtain plasma. Following blood collection, the mice were dissected, and major organs/tissues—including the brain, abdominal fat, heart, small intestine, large intestine, kidney, liver, lung, abdominal muscle, spleen, and stomach—were harvested. The organs and tissues were cut into small pieces and rinsed with isotonic saline before being blotted dry. All collected biological samples were placed on dry ice. At the end of the in vivo study, all samples were stored at –80 °C in a deep freezer until HPLC analysis.
Non-compartmental pharmacokinetic analysis was performed using WinNonlin Standard Version 1.0 (Scientific Consulting Inc., Apex, NC, USA). Plasma and tissue exposure, expressed as the area under the concentration–time curve (AUC), was calculated using the mean values of the individual mice.

Which results are given for `COc1cc(/C=C/c2cc(O)cc(O)c2)ccc1O` [ISO, trans-3,5,4′-trihydroxy-3′-methoxystilbene]?
Anti-COPD activity compared with RES [1]: stronger anti-COPD activity than RES; Glucuronidation [2]: extensive glucuronidation; Sulfation [2]: not detected; Change in oral bioavailability after one-week repeated dosing ([3]; one-week repeated dosing): did not result in any significant changes; Absolute oral bioavailability ([3]; rats, oral): 20–30%; Time of peak plasma concentrations post-dosing ([3]; rats, oral): ≤ 15 min; remaining at 45 ng/mL ([4]; 45.0 ng/mL, after three freeze and thaw cycles): 101 ± 4.4%; remaining at 1248 h, 45 ng/mL ([4]; 45.0 ng/mL, long term-stability (−80 °C for 52 days)): 102 ± 1.9%; remaining at 24 h, 45 ng/mL ([4]; 45.0 ng/mL, post-preparative stability (autosampler at 4 °C for at least 24 h)): 102 ± 2.7%; remaining at 24 h, 45 ng/mL ([4]; 45.0 ng/mL, short-term stability (24 h at room temperature)): 102 ± 3.7%; remaining at 1600 ng/mL ([4]; 1600 ng/mL, after three freeze and thaw cycles): 105 ± 1.1%; remaining at 1248 h, 1600 ng/mL ([4]; 1600 ng/mL, long term-stability (−80 °C for 52 days)): 106 ± 2.1%; remaining at 24 h, 1600 ng/mL ([4]; 1600 ng/mL, post-preparative stability (autosampler at 4 °C for at least 24 h)): 101.7 ± 1%; remaining at 24 h, 1600 ng/mL ([4]; 1600 ng/mL, short-term stability (24 h at room temperature)): 101.7 ± 0.9%; Time of peak plasma concentrations post-dosing [5]: ≤ 15 min; remaining at 24 h, 1 mg/mL ([6]; stored at room temperature for 24 h): 94.6 ± 0.7%; remaining at 480 h, 1 mg/mL ([6]; stored at −20 °C for 20 days): 105 ± 1.4%; Time at which mean concentrations in plasma and multiple tissues peak ([7]; oral suspension, 200 µmol/kg (51.7 mg/kg)): 10 min; Exposure (AUC) ranking across plasma and tissues ([7]; oral, 200 µmol/kg (51.7 mg/kg), AUC from mean concentrations, 5-80 min): stomach > small intestine > liver > large intestine > plasma > kidney > heart > spleen > lung > muscle; Penetration into brain and fat ([7]; oral, 200 µmol/kg, brain and fat samples, quantifiable levels printed as ≥75 ng/mL): only a few reached quantifiable levels; Detectability of ISO in the kidney, liver, and heart over time ([7]; oral, 200 µmol/kg, kidney, liver, heart): undetectable in some mice as early as 20 min; Detectability of ISO in the lung and muscle over time ([7]; oral, 200 µmol/kg, lung, muscle): detectable in the lung and muscle mainly between 10 and 20 min; Quantifiability of ISO in plasma over time ([7]; oral, 200 µmol/kg, plasma): unquantifiable in one out of four mice by 40 min
